Test results as given in article PMC10423561, “Effects of the CYP3A inhibitors, voriconazole, itraconazole, and fluconazole on the pharmacokinetics of osimertinib in rats” (PeerJ, 2023).
Values joined by “and” are separate entries in the source; they are usually repeats but may differ in a detail not shown here. Equal entries are not always repeated. Where two headings read alike, the source gives them in different places.

Columns and labels:
[1] = Pharmacokinetic study of OSIM in rats, alone or after voriconazole, itraconazole or fluconazole pretreatment (plasma concentration by HPLC-MS/MS); type: in vivo, Sprague-Dawley rats; design: Conc. (plasma): unit not given here; details: for Conc. (plasma): individual rats; for AUC(0-inf) / AUC(0-t) / CL/F / Cmax / Tmax / Vd/F / half-life / MRT inf: male, Sprague-Dawley, rat, plasma, po, 10 mg/kg; for Vd/F: read-out: Vz/F; for MRT inf: read-out: MRT0–inf
Experimental: A liquid chromatography with tandem mass spectrometry (HPLC-MS/MS) system coupled to a JasperTM HPLC and Triple […] and equipped with an electrospray ionization (ESI) interface source (AB Sciex, Redwood City, CA, USA) was used for the analysis. […] Waters Corp., Milford, MA, USA) maintained at 45 °C. Mobile phase A was 0.2% formic acid in water, and mobile phase B was acetonitrile. […] Carry-over was minimized with methanol-acetonitrile-isopropanol-water solution (1:1:1:1, v/v/v/v) before and after the injection procedure. […] Subsequently, all samples were vortex-mixed for 30 s and were centrifuged at 14,000 × g for 10 min. Finally, each sample was reconstituted with an aliquot of mobile phase A. The sample was transferred to a 0.8 mL 96-well plate, of which 5 μL was injected into HPLC-MS/MS system for analysis. Twenty-four adult male Sprague-Dawley rats (220 ± 20 g) with specific pathogen free were supplied by the Laboratory Animal Center of Zhejiang Provincial People's Hospital. […] The study was performed in accordance with the Animal Care and Use Committee of Zhejiang Provincial People's Hospital (number: […], and FCZ were prepared in 0.3% carboxymethyl cellulose sodium (CMC-Na). After 12 h of fasting and free water consumption, the rats were randomly separated into four groups, and the sample size was based on a similar study using as few rats as possible (n = 6): control (equivalent volume of 0.3% CMC-Na), VCZ (20 mg/kg), ICZ (20 mg/kg), and FCZ (20 mg/kg) groups. Only those responsible for treatment management researchers know this group well. Each group was housed in a single cage. The rats in the four groups were orally dosed once daily with 0.3% CMC-Na, VCZ, ICZ, or FCZ, respectively; they reached steady-state exposure after five continuous days of dosing. […] All rats received an oral gavage dose of approximately equivalent volume treatment regimens (one mL). Rats were restrained on the rat fixator on the laboratory bench. […] Experimental data were given as mean ± standard deviation (SD). The mean concentration levels of OSIM versus time profile were drawn using GraphPad Prism 9.4 (GraphPad Software, Inc., San Diego, CA, USA). […] SPSS 26.0 was used for statistical analysis (IBM, Armonk, USA). Significant differences among the groups were identified using one-way ANOVA and Tukey test. P < 0.05 was considered significant.

[2] = design: method as in Brown et al., 2017; details: with ICZ compared with OSIM administered alone; ref Brown et al., 2017; cited from earlier work
[3] = ICZ group vs control, rats, P < 0.05
[4] = OSIM 10 mg/kg oral after fluconazole 20 mg/kg oral once daily for 5 days, rats, n = 6
[5] = OSIM 10 mg/kg oral after voriconazole 20 mg/kg oral once daily for 5 days, rats, n = 6
[6] = co-administered with itraconazole vs control, rats
[7] = co-administration with VCZ vs OSIM alone, rats
[8] = co-administration with fluconazole vs control, rats
[9] = OSIM 10 mg/kg oral after itraconazole 20 mg/kg oral once daily for 5 days, rats, n = 6
[10] = OSIM 10 mg/kg oral, control (0.3% CMC-Na), rats, n = 6, mean ± SD

## C=CC(=O)Nc1cc(Nc2nccc(-c3cn(C)c4ccccc34)n2)c(OC)cc1N(C)CCN(C)C [OSIM, Osimertinib]
[1]; Con group (OSIM alone), Time 0.25
  Conc. (plasma): 8.0671 and 11.9979
[1]; Con group (OSIM alone), Time 0.5
  Conc. (plasma): 12.1988 and 19.9452
[1]; Con group (OSIM alone), Time 1
  Conc. (plasma): 26.2008 and 25.1352
[1]; Con group (OSIM alone), Time 2
  Conc. (plasma): 34.4763 and 31.6327
[1]; Con group (OSIM alone), Time 4
  Conc. (plasma): 32.976 and 28.9864
[1]; Con group (OSIM alone), Time 5
  Conc. (plasma): 24.2861 and 21.3664
[1]; Con group (OSIM alone), Time 6
  Conc. (plasma): 16.055 and 19.5716 and 16.4633
[1]; Con group (OSIM alone), Time 8
  Conc. (plasma): 9.5939 and 12.9324 and 12.4752
[1]; Con group (OSIM alone), Time 12
  Conc. (plasma): 3.1238 and 5.2228 and 5.1031
[1]; Con group (OSIM alone), Time 24
  Conc. (plasma): 0.3493 and 0.667
[1]; Con group (OSIM alone), Time 48
  Conc. (plasma): 0.1948 and 0.7004
[1]; FCZ group vs control, rats
  AUC0–t of OSIM enhanced by: ~1.01 fold
  Cmax of OSIM enhanced by: approximately 0.53 fold
  reduction of Cl/F of OSIM: 49.49%
  reduction of Vz/F of OSIM: 55.89%
[1]; Flu group (fluconazole pretreatment), Time 0.25
  Conc. (plasma): 7.8097 and 15.8697
[1]; Flu group (fluconazole pretreatment), Time 0.5
  Conc. (plasma): 11.781 and 29.3217
[1]; Flu group (fluconazole pretreatment), Time 1
  Conc. (plasma): 19.1216
[1]; Flu group (fluconazole pretreatment), Time 2
  Conc. (plasma): 33.0063 and 43.3299
[1]; Flu group (fluconazole pretreatment), Time 3
  Conc. (plasma): 39.5899 and 53.0362
[1]; Flu group (fluconazole pretreatment), Time 4
  Conc. (plasma): 43.6983 and 40.9109
[1]; Flu group (fluconazole pretreatment), Time 5
  Conc. (plasma): 33.9054 and 36.7921
[1]; Flu group (fluconazole pretreatment), Time 6
  Conc. (plasma): 33.9688
[1]; Flu group (fluconazole pretreatment), Time 8
  Conc. (plasma): 18.8994 and 29.246 and 22.772
[1]; Flu group (fluconazole pretreatment), Time 12
  Conc. (plasma): 8.5799 and 18.5501 and 14.3797
[1]; Flu group (fluconazole pretreatment), Time 24
  Conc. (plasma): 1.2033 and 2.0928 and 2.1757
[1]; Flu group (fluconazole pretreatment), Time 48
  Conc. (plasma): 0.3201 and 0.2978
[1]; [3]
  decrease in Vz/F of OSIM: 38.08%
  decrease in t1/2 of OSIM: 25.41%
[1]; Itr group (itraconazole pretreatment), Time 0.25
  Conc. (plasma): 5.2753 and 10.1717
[1]; Itr group (itraconazole pretreatment), Time 0.5
  Conc. (plasma): 2.137 and 22.1484
[1]; Itr group (itraconazole pretreatment), Time 1
  Conc. (plasma): 14.402 and 30.439
[1]; Itr group (itraconazole pretreatment), Time 2
  Conc. (plasma): 19.1571 and 37.1482
[1]; Itr group (itraconazole pretreatment), Time 3
  Conc. (plasma): 31.5023
[1]; Itr group (itraconazole pretreatment), Time 4
  Conc. (plasma): 27.9801
[1]; Itr group (itraconazole pretreatment), Time 5
  Conc. (plasma): 22.7144 and 26.9275
[1]; Itr group (itraconazole pretreatment), Time 6
  Conc. (plasma): 27.5418 and 15.763 and 19.3207
[1]; Itr group (itraconazole pretreatment), Time 8
  Conc. (plasma): 24.0911 and 10.4766 and 13.0808
[1]; Itr group (itraconazole pretreatment), Time 12
  Conc. (plasma): 4.7714 and 7.383
[1]; Itr group (itraconazole pretreatment), Time 24
  Conc. (plasma): 1.7983 and 0.7083 and 1.0943
[1]; Itr group (itraconazole pretreatment), Time 48
  Conc. (plasma): 0.2444 and 0.2377
[1]; [4]
  MRT0–inf: 8.32 ± 0.47 h
  t1/2: 5.75 ± 0.25 h
  AUC(0-inf): 524 ± 92.4 ng·h/mL
  AUC(0-t): 521 ± 92.5 ng·h/mL
  CL/F: 325 mL/min/kg
  Cmax: 50.8 ± 8.41 ng/mL
  Tmax: 3.17 ± 0.98 h
  Vd/F: 162 ± 26.7 L/kg
[1]; [5]
  t1/2: 3.82 ± 0.34 h
  AUC(0-inf): 422 ± 57.9 ng·h/mL
  AUC(0-t): 422 ± 58.4 ng·h/mL
  CL/F: 401 mL/min/kg
  Cmax: 52.3 ± 10.5 ng/mL
  Tmax: 2.83 ± 0.41 h
  MRT inf: 6.83 ± 0.36 h
  Vd/F: 132 ± 17.9 L/kg
[1]; VCZ group vs control, rats
  decrease in Cl/F of OSIM: 37.74%
  decrease in Vz/F of OSIM: 64.03%
  decrease in t1/2 of OSIM: 42.56%
[1]; administration of OSIM with ICZ, rats
  other parameters (Cmax, Tmax, AUC, MRT, and Cl/F) compared with the control group: not significantly different
[1]; [6]
  increase in AUC0–t of OSIM: 34.80%
  increase in Cmax of OSIM: 13.91%
[1]; co-administration with FCZ vs control, rats
  effect on t1/2 and Tmax of orally administered OSIM: did not significantly alter
[1]; [7]
  increase in AUC0–t of OSIM: 62.56%
  increase in Cmax of OSIM: 58.04%
[1]; [8]
  increase in AUC0–t of OSIM: 100.98%
  increase in Cmax of OSIM: 53.45%
[1]; [9]
  AUC(0-inf): 357 ± 99.7 ng·h/mL
  AUC(0-t): 350 ± 96.3 ng·h/mL
  CL/F: 504 mL/min/kg
  Cmax: 37.7 ± 11.5 ng/mL
  Tmax: 3.83 ± 1.6 h
  half-life: 4.96 ± 1.1 h
  MRT inf: 7.51 ± 0.6 h
  Vd/F: 228 ± 127 L/kg
[1]; [10]
  AUC(0-inf): 264 ± 34.4 ng·h/mL
  AUC(0-t): 259 ± 33.1 ng·h/mL
  CL/F: 644 mL/min/kg
  Cmax: 33.1 ± 3.66 ng/mL
  Tmax: 2.33 ± 0.52 h
  half-life: 6.65 ± 0.48 h
  MRT inf: 7.61 ± 0.74 h
  Vd/F: 368 ± 36.3 L/kg
[1]; vor group (voriconazole pretreatment), Time 0.25
  Conc. (plasma): 7.2019 and 17.8367
[1]; vor group (voriconazole pretreatment), Time 0.5
  Conc. (plasma): 35.8513
[1]; vor group (voriconazole pretreatment), Time 1
  Conc. (plasma): 38.47
[1]; vor group (voriconazole pretreatment), Time 2
  Conc. (plasma): 40.5898 and 38.9958
[1]; vor group (voriconazole pretreatment), Time 3
  Conc. (plasma): 68.6321 and 46.961
[1]; vor group (voriconazole pretreatment), Time 4
  Conc. (plasma): 35.6688 and 44.311
[1]; vor group (voriconazole pretreatment), Time 5
  Conc. (plasma): 28.7864 and 35.6992
[1]; vor group (voriconazole pretreatment), Time 6
  Conc. (plasma): 35.4312 and 22.8434 and 29.124
[1]; vor group (voriconazole pretreatment), Time 8
  Conc. (plasma): 20.9535 and 15.9897 and 16.5811
[1]; vor group (voriconazole pretreatment), Time 12
  Conc. (plasma): 10.8434 and 7.3402 and 9.397
[1]; vor group (voriconazole pretreatment), Time 24
  Conc. (plasma): 0.9533 and 0.6206
[1]; vor group (voriconazole pretreatment), Time 48
  Conc. (plasma): 0.0227 and 0.021
[2]
  increase in AUC0–t of OSIM: approximately 8%
